Consider one molecule from patent publication US12630543B2 (priority 2019, dated 2026).

SMILES strings stand for the structures.

The test has as its system rice blast. It is filed as cell-based. Particulars: 1,000 μl of 2,000 ppm test solution on oatmeal culture medium; 8 mm rice blast disc; 25° C. for 7 days; elongation length of hyphae vs without treatment.

`COc1nn(-c2ccccn2)c(F)c1C(F)(F)F` [Example 2, 5-fluoro-3-methoxy-1-(2-pyridyl)-4-trifluoromethylpyrazole] showed a Preventive value of 80.
